Data: patent US20250051375A1, “ANTI-HIV COMPOUNDS” (Gilead Sciences, Inc., priority 2023, published 2025)
Converted amounts (≈) assume the structure as drawn.

Legend:
[1] = biological target: bovine intestinal alkaline phosphatase (Bos taurus (Bovine), UniProt P19111); test: BiALP: conversion by bovine intestinal alkaline phosphatase; assay type: in vitro ADME; settings: 2 μM substrate, 100 ng/mL iALP, Tris pH 7.8, 37° C., 60 minutes
Method: Fosamprenavir and its parent compound (amprenavir) were purchased from Millipore Sigma (St. Louis, MO). Test compounds, Intermediate A, fosamprenavir, and amprenavir were each separately dissolved in dimethyl sulfoxide (DMSO) at a concentration of 10 mM to form stock solutions.
All other chemicals were purchased from Millipore Sigma (St. Louis, MO) and Thermo Fisher Scientific (Waltham, MA). […] Internal Standard/Quench (IS/Q) was 100 nM labetalol in 99:1 (v/v) acetonitrile/formic acid.
Incubations were performed with Tris buffer alone (0.1 M Tris-HCl pH 7.8 containing 1 mM MgCl2 and 1 mM ZnCl2) or the same Tris buffer further containing 100 ng/mL iALP (0.01 units/mL). Triplicate 100 μL aliquots of Tris buffer±iALP were warmed to 37° C. and the reactions were initiated by the addition of the test compound or fosamprenavir to obtain final substrate concentrations of 2 μM. Incubations were then continued at 37° C. At 60 minutes, reactions were terminated by the addition of 200 μl of IS/Q and mixed by pipette. […] Aliquots (150 μL) of the supernatants were transferred to fresh plates containing 150 μL of water. Aliquots (15 μL) of the diluted supernatants were analyzed by mass spectrometry as described below.
Quantification of the test compounds and fosamprenavir was performed by analyte/internal standard peak area ratios (PARs) with comparison to 2 μM Intermediate A and amprenavir, respectively. The LC instrumentation consisted of a Thermo Scientific Vanquish pump and a Thermo Hypersil Gold column (1.9 μm particle size, 2.1×50 mm). […] The MS instrument was a Thermo Q Exactive™ Plus operating in positive ionization mode with mass tolerance of 5 ppm and calibrated on a twice weekly basis.

HIV-1 IIIB strain = test: MT-4 HIV Wild Type Virus Infection Assay (IIIB Virus); assay type: cell-based; settings: Human immunodeficiency virus 1, IIIB, MT4, 120 h, MT-4 cells acutely infected with HIV-1 IIIB, 5 day incubation, Cell-titer glo
Method: Test compounds and controls were serially diluted and spotted in replicate into 384 well black assay plates via acoustic transfer (Echo). MT-4 cells were grown in batch, centrifuged and resuspended into fresh CCM media (RPMI w/10% FBS, 1% PS) at 2×10^6 cells/ml. MT-4 cells were acutely infected with HIV-1 IIIB strain. The size of each infection mix was scaled by the number of sample plates to be tested. Each infection mix was transferred into 5 mL closed tubes and nutated rapidly on a shaker at 37° C. incubator for 1 hour. The infection mixes were then diluted 25× in fresh cell culture media and then added to assay plates at 40 μL per well using a ViaFlo 384 pipettor. After 5 day incubation at 37° C. in a CO2 incubator, assay plates were processed with Cell-titer glo reagent using a ViaFlo 384 with an addition/mixing program. Plates were read immediately on Envision reader. Assay signals were plotted and dose response curves generated to determine individual compound EC50s.

Solubility in FaSSIF = settings: 23 °C, pH 6.5, fassif, thermodynamic from solid
Method: Buffer Preparation: Fasted State Simulated Intestinal Fluid (FaSSIF): Simulated Intestinal Fluid (SIF) powder containing a complex of Taurocholate and Lecithin (4:1 molar ratio) was obtained from Biorelevant. 0.056 g of SIF powder was added to 25 mL of buffer, adjusted to pH 6.5, containing 0.011 g of NaOH (pellets), 0.099 g of NaH2PO4 (monohydrate), and 0.155 g of NaCl. The buffer was prepared with HPLC H2O. The SIE powder was stirred until completely dissolved and allowed to stand for 2 hours.
Test Compounds: Each test compound was placed in a vial containing approximately 7 mg of material. Aliquots were weighed out for each assay media at each time point to be analyzed. The buffer was added to each vial such that the final dose concentration of 5 mg/mL was achieved. Samples were then vortexed for 5-10 seconds.
The plate was sealed with a pierceable heat seal and analyzed by HPLC-UV.

bovine intestinal alkaline phosphatase, sequence (P19111 20-506): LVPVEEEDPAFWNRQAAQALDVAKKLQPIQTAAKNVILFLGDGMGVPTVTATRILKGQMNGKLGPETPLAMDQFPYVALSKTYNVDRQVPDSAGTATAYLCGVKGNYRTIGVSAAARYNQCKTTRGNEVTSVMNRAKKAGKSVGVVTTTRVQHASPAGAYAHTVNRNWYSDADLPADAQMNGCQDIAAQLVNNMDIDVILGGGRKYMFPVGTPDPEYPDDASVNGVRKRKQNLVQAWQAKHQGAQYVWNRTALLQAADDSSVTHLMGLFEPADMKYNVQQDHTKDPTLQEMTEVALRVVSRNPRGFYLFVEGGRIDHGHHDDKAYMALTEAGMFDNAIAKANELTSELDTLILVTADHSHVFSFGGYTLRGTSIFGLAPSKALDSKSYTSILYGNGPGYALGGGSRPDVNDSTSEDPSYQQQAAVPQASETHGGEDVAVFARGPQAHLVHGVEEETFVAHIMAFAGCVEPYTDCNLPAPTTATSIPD

| Structure (SMILES) | [Compound] [1] [nM] | EC50 (HIV-1 IIIB strain) [nM] | solubility at 2 h (Solubility in FaSSIF) [µg/mL] | biALP Intermediate A or [Amprenavir] (% of total) [1] | [Intermediate A] or [Amprenavir] ([1]; parent formed) [nM] |
| --- | --- | --- | --- | --- | --- |
| COC(=O)N[C@H](C(=O)N[C@@H](Cc1ccc(C#Cc2ccc(N3CC4CCC(C3)N4C3COC3)nc2)cc1)[C@H](CN(Cc1c(F)cc(-c2ccn(C(F)F)n2)cc1F)NC(=O)[C@@H](NC(=O)OC)C(C)(C)C(F)(F)F)OC(=O)CC(C)(C)c1c(CC(=O)NC(CC(=O)O)C(=O)O)cc(C)cc1CP(=O)(O)O)C(C)(C)C(F)(F)F (stereo partly drawn) [Example 23] | 2107.1 |  |  |  |  |
| COC(=O)N[C@H](C(=O)N[C@@H](Cc1ccc(C#Cc2cnc(N3CC4CCC(C3)N4C3COC3)nc2)cc1)[C@H](CN(Cc1c(F)cc(-c2ccn(C(F)F)n2)cc1F)NC(=O)[C@@H](NC(=O)OC)C(C)(C)C(F)(F)F)OC(=O)CC(C)(C)c1c(CC(=O)N([C@H](C)C(=O)O)S(=O)(=O)O)cc(C)cc1OP(=O)(O)O)C(C)(C)C(F)(F)F [Example 32] | 1435.5 |  |  |  |  |
| COC(=O)N[C@H](C(=O)N[C@@H](Cc1ccc(C#Cc2cnc(N3CC4CCC(C3)N4C3COC3)nc2)cc1)[C@H](CN(Cc1c(F)cc(-c2ccn(C(F)F)n2)cc1F)NC(=O)[C@@H](NC(=O)OC)C(C)(C)C(F)(F)F)OC(=O)CC(C)(C)c1c(CC(=O)N([C@H](C)C(=O)O)S(=O)(=O)O)cccc1OP(=O)(O)O)C(C)(C)C(F)(F)F [Example 39] | 1310.3 |  |  |  |  |
| COC(=O)N[C@H](C(=O)N[C@@H](Cc1ccc(C#Cc2cnc(N3CC4CCC(C3)N4C3COC3)nc2)cc1)[C@H](CN(Cc1c(F)cc(-c2ccn(C(F)F)n2)cc1F)NC(=O)[C@@H](NC(=O)OC)C(C)(C)C(F)(F)F)OC(=O)OCOC(=O)CC(C)(C)c1c(CC(=O)N2CCN(CC(=O)O)CC2)cc(C)cc1OP(=O)(O)O)C(C)(C)C(F)(F)F [Example 77] | 2259 | 8.3 | 2760 (≈ 1640 µM) |  |  |
| COC(=O)N[C@H](C(=O)N[C@@H](Cc1ccc(C#Cc2cnc(N3CC4CCC(C3)N4C3COC3)nc2)cc1)[C@H](CN(Cc1c(F)cc(-c2ccn(C(F)F)n2)cc1F)NC(=O)[C@@H](NC(=O)OC)C(C)(C)C(F)(F)F)OC(=O)OCOC(=O)CC(C)(C)c1c(CC(=O)N2CCCC2C(=O)O)cc(C)cc1OP(=O)(O)O)C(C)(C)C(F)(F)F (stereo partly drawn) [Example 78] | 2070.6 | 3.1 | 4390 (≈ 2650 µM) |  |  |
| COC(=O)N[C@H](C(=O)N[C@@H](Cc1ccc(C#Cc2cnc(N3CC4CCC(C3)N4C3COC3)nc2)cc1)[C@H](CN(Cc1c(F)cc(-c2ccn(C(F)F)n2)cc1F)NC(=O)[C@@H](NC(=O)OC)C(C)(C)C(F)(F)F)OC(=O)CC(C)(C)c1c(CC(=O)N2CCN(S(C)(=O)=O)CC2)cc(C)cc1OP(=O)(O)O)C(C)(C)C(F)(F)F [Example 80, (5S,10S,11S,14S)-8-(4-(1-(difluoromethyl)-1H-pyrazol-3-yl)-2,6-difluorobenzyl)-11-(4-((2-(8-(oxetan-3-yl)-3,8-diazabicyclo[3.2.1]octan-3-yl)pyrimidin-5-yl)ethynyl)benzyl)-3,6,13,16-tetraoxo-5,14-bis(1,1,1-trifluoro-2-methylpropan-2-yl)-2,17-dioxa-4,7,8,12,15-pentaazaoctadecan-10-yl 3-methyl-3-(4-methyl-2-(2-(4-(methylsulfonyl)piperazin-1-yl)-2-oxoethyl)-6-(phosphonooxy)phenyl)butanoate] | 2507.9 | 735 | < 1000 | 0 % of total | 0 |
| CC(C)CN(C[C@@H](OP(=O)(O)O)[C@H](Cc1ccccc1)NC(=O)O[C@H]1CCOC1)S(=O)(=O)c1ccc(N)cc1 [Fosamprenavir, fosamprenavir, reference compound] | 1605 |  |  |  |  |
